Patent US20150020915A1, “Antiperspirant Spray Devices and Compositions” (The Procter & Gamble Company, priority 2013, published 2015)

From the text: (§1) Solubility may be determined by measuring the amount of light transmittance (a light transmittance value) through a simple mixture of the non-volatile silicone fluid and liquid activation enhancer at the same weight/weight concentrations as in a final antiperspirant composition.
as §1, with “Solubility of a liquid activation enhancer in a non-volatile silicone” for “Solubility”, “(light” for “(a light”
The Spectronic Genesys 10 V is utilizes a tungsten-halogen light source and has a spectral bandwidth of 5 nm, a wavelength range of 325 to 1100 nm, accuracy of ±1 nm and a repeatability of ±0.5 nm. Readouts include absorbance, transmittance and concentration. The spectrophotometer is set to 640 nm wavelength and the percent transmittance mode/readout. Polystyrene spectrometer cuvettes having a 1 cm optical light path and transmittance between ˜340 nm and ˜900 nm are used. One suitable example of a spectrometer cuvette is available from VWR International LLC under Catalog #97000-584 having a 2.5 to 4.5 ml capacity. The spectrophotometer is calibrated according to the manufacturer's instructions using a reference cuvette and composition comprised of just the non-volatile silicone fluid of interest. For example, if the test composition comprises 50 centistoke dimethicone and 15% w/w of isopropyl myristate, then the spectrometer is calibrated using a cuvette containing just 50 centistoke dimethicone. Sample cuvettes are filled sufficiently with a test composition of a non-volatile silicone fluid and liquid activation enhancer so that the light path of the spectrophotometer passes through the test composition in the cuvette. The sample cuvettes are shaken well just prior to taking a light transmittance reading.

light transmittance value	Compound	solubility in 50 centistoke dimethicone (in words)
about 100%	CCCCCCCCCCCCCCCCCC(=O)OCCCC [butyl stearate]	–
about 100%	CCCCCCCCCCCCCC(C)C [isohexadecane]	soluble
about 101%	CCCCCCCCCCCCCC(=O)OC(C)C [isopropyl myristate]	–
about 101%	CCCCCCCCCCCCCCCC(=O)OC(C)C [isopropyl palmitate]	–
–	CCCCCCCCCCC(CO)CCCCCCCC (centres unmarked) [octyldodecanol]	soluble in the 50 centistoke dimethicone at some (lower) concentrations
–	PPG-14 butyl ether	insoluble
–	mineral oil	soluble in 50 centistoke dimethicone at some (lower) concentrations
